Assay results: the supplement of paper PMC10307832

Experiments:
Experiment in all cases: relative viability (nuclei count vs DMSO), 5 days (fraction); higher = more cells survive
[1] = compound: C1CC(C2=C(C1)C3=C(N2)C=CC(=C3)Cl)C(=O)N [Selisistat] + COc1cccc2cc(-c3nc([C@H]4CC[C@H](C(=O)O)CC4)n4ncnc(N)c34)[nH]c12 [OSI-027] (partner 0.5 µM)
In short: (§1)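 For relative viability, nuclei counts in treated wells were divided by those in vehicle wells. Lung cancer cell lines had been pin-tool dosed in 1536-well plates the day after seeding and cultured for 5 days, then fixed and stained in one step (final 0.05% Triton X-100, 1% formaldehyde, 1 ug/ml Hoechst) and imaged at 4×. Doses were one drug alone or a fixed anchor-drug dose plus five library-drug doses (not always all listed) in √10 steps, and values are duplicate-plate medians.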

[2] = compound: C1CC(C2=C(C1)C3=C(N2)C=CC(=C3)Cl)C(=O)N [Selisistat] + CS(=O)(=O)N1CCN(Cc2cc3nc(-c4cccc5[nH]ncc45)nc(N4CCOCC4)c3s2)CC1 [Pictilisib] (partner 1 µM)
In short: as §1

[3] = compound: C1CC(C2=C(C1)C3=C(N2)C=CC(=C3)Cl)C(=O)N [Selisistat] + C[C@]1(O)C[C@@H](c2nc(-c3ccc4ccc(-c5ccccc5)nc4c3)c3c(N)nccn32)C1 [Linsitinib] (partner 1 µM)
In short: as §1

[4] = compound: C1CC(C2=C(C1)C3=C(N2)C=CC(=C3)Cl)C(=O)N [Selisistat] + Cc1cc(Nc2cc(N3CCN(C)CC3)nc(Sc3ccc(NC(=O)C4CC4)cc3)n2)n[nH]1 [Tozasertib] (partner 0.1 µM)
In short: as §1

Cell Line | relative viability ([1]; first compound 0.4 µM) | relative viability ([1]; first compound 1.265 µM) | relative viability ([1]; first compound 4 µM) | relative viability ([1]; first compound 12.65 µM) | relative viability ([1]; first compound 40 µM) | relative viability ([2]; first compound 0.4 µM) | relative viability ([2]; first compound 1.265 µM) | relative viability ([2]; first compound 4 µM) | relative viability ([2]; first compound 12.65 µM) | relative viability ([2]; first compound 40 µM) | relative viability ([3]; first compound 0.4 µM) | relative viability ([3]; first compound 1.265 µM) | relative viability ([3]; first compound 4 µM) | relative viability ([3]; first compound 12.65 µM) | relative viability ([3]; first compound 40 µM) | relative viability ([4]; first compound 0.4 µM) | relative viability ([4]; first compound 1.265 µM) | relative viability ([4]; first compound 4 µM) | relative viability ([4]; first compound 12.65 µM) | relative viability ([4]; first compound 40 µM)
201T | 0.797 | 0.705 | 0.555 | 0.587 | 0.739 | 0.69 | 0.648 | 0.58 | 0.673 | 0.685 | 1.08 | 1.02 | 0.998 | 0.967 | 1.06 | 0.945 | 0.95 | 0.873 | 0.919 | 0.935
A549 | – | – | – | – | – | 0.605 | 0.478 | 0.525 | 0.55 | 0.449 | 0.664 | 0.587 | 0.484 | 0.649 | 0.622 | – | – | – | – | –
A-427 | 0.455 | 0.432 | 0.301 | 0.421 | 0.57 | 0.625 | 0.622 | 0.327 | 0.656 | 0.73 | 1.21 | 1.05 | 1.1 | 1.15 | 1.15 | 0.207 | 0.194 | 0.182 | 0.226 | 0.183
ABC-1 | 0.499 | 0.447 | 0.331 | 0.442 | 0.436 | 0.782 | 0.895 | 0.728 | 0.758 | 0.773 | 0.649 | 0.652 | 0.788 | 0.726 | 0.721 | 0.184 | 0.179 | 0.17 | 0.176 | 0.149
BEN | 0.263 | 0.251 | 0.282 | 0.282 | 0.274 | 0.581 | 0.578 | 0.459 | 0.548 | 0.521 | 0.971 | 0.986 | 0.812 | 0.762 | 0.827 | 0.55 | 0.406 | 0.385 | 0.505 | 0.471
CAL-12T | 0.726 | 0.535 | 0.472 | 0.53 | 0.694 | 0.384 | 0.388 | – | 0.6 | 0.314 | 0.85 | 0.799 | 0.82 | 0.784 | 0.862 | 0.306 | 0.239 | 0.328 | 0.27 | 0.255
COR-L23 | 0.866 | 0.803 | 0.799 | 0.653 | 0.653 | 0.821 | 0.78 | 0.899 | 0.701 | 0.689 | 1.04 | 0.872 | 1.04 | 0.899 | 0.876 | 0.243 | 0.241 | 0.218 | 0.171 | 0.183
COR-L 105 | 0.755 | 0.624 | – | 0.712 | 0.584 | 0.432 | 0.412 | 0.322 | 0.405 | 0.418 | 0.755 | 0.918 | 0.933 | 1.02 | 0.914 | 0.344 | 0.344 | – | 0.315 | 0.336
Calu-6 | – | – | – | – | – | 0.867 | 0.886 | 0.895 | 0.872 | 0.925 | 0.932 | 0.964 | 0.981 | 0.975 | 0.939 | – | – | – | – | –
ChaGo-K-1 | 0.588 | 0.461 | 0.492 | 0.535 | 0.617 | 0.804 | 0.844 | – | 0.675 | 0.646 | – | – | – | – | – | 0.213 | 0.214 | 0.232 | 0.186 | 0.245
EBC-1 | – | – | – | – | – | 0.373 | 0.286 | 0.46 | 0.454 | 0.389 | 0.92 | 0.899 | 0.892 | 0.8 | 0.844 | – | – | – | – | –
EKVX | 0.756 | 0.754 | 0.689 | 0.69 | 0.697 | 0.451 | 0.432 | 0.39 | 0.442 | 0.53 | 1.14 | 0.982 | 0.983 | 0.914 | 0.939 | 0.352 | 0.37 | 0.421 | 0.376 | 0.369
EMC-BAC-2 | 0.391 | 0.358 | 0.462 | 0.362 | 0.342 | 0.551 | 0.53 | 0.477 | 0.577 | 0.524 | 0.87 | 0.787 | 0.777 | 0.753 | 0.813 | 0.302 | 0.286 | 0.404 | 0.281 | 0.257
EPLC-272H | 0.274 | 0.237 | – | 0.289 | 0.289 | 0.261 | 0.337 | – | 0.287 | 0.332 | 1.24 | 1.2 | – | 1 | 1.2 | 0.265 | 0.231 | – | 0.34 | 0.191
H3255 | 0.621 | 0.553 | 0.741 | 0.579 | 0.648 | 0.508 | 0.41 | 0.481 | 0.494 | 0.532 | 0.946 | 0.843 | 0.973 | 0.827 | 0.938 | 0.624 | 0.772 | 0.589 | 0.657 | 0.717
HARA | 0.632 | 0.405 | 0.382 | 0.508 | 0.477 | 0.492 | 0.366 | 0.348 | 0.307 | 0.401 | 0.938 | 0.917 | 0.854 | 0.844 | 0.983 | 0.137 | 0.12 | 0.119 | 0.154 | 0.1
HCC-15 | 0.81 | 0.676 | – | 0.622 | 0.618 | 0.813 | 0.775 | – | 0.814 | 0.793 | 1.03 | 0.918 | – | 0.902 | 0.696 | 0.407 | 0.375 | – | 0.311 | 0.252
HCC-44 | 0.591 | – | – | 0.457 | 0.586 | 0.633 | 0.551 | 0.595 | 0.599 | 0.436 | 0.707 | 0.698 | 0.669 | 0.662 | 0.753 | 0.968 | – | – | 0.848 | 0.931
HCC-78 | 0.379 | 0.346 | 0.316 | 0.382 | 0.359 | 0.253 | 0.229 | 0.172 | 0.196 | 0.181 | 0.571 | 0.483 | 0.553 | 0.537 | 0.437 | 0.486 | 0.418 | 0.398 | 0.407 | 0.424
